Test results from patent EP1076064A1, “NOVEL ASPARTAME DERIVATIVE CRYSTAL AND PROCESS FOR PRODUCING THE SAME” (Ajinomoto Co., Inc., priority 1998, dated 1999).

Tests used:
[1] = Measurement of the dissolution rate for the dried crystals (dissolution tester); format: physicochemical; conditions: 0.5 g crystals in 900 ml ion exchanged water kept at 20 °C, stirring 100 rpm
Experimental: The dissolution rates of the A-type crystals (Reference Example 4 (b)) and the D-type crystals (Example 1) were determined in the following method. The apparatus used was "DISSOLUTION TESTER" (NTR-6100) manufactured by Toyama Sangyo K. K. 0.5 g each of the A-type crystals and D-type crystals were introduced into 900 ml ion exchanged water kept at 20 °C at a stirring in the number of revolution of 100 rpm, and the time which elapsed until the crystals came to be completely dissolved was measured.

[2] = cited from earlier work

| Compound | time which elapsed until the crystals came to be completely dissolved [1] | efficacy of sweetness relative to Aspartame ([2]; in weight ratio, versus Aspartame) | efficacy of sweetness relative to sucrose (table sugar) ([2]; versus sucrose (table sugar)) |
| --- | --- | --- | --- |
| COC(=O)[C@H](Cc1ccccc1)NC(=O)[C@H](CC(=O)O)NCCC(C)(C)C [D-type crystals, N-[N-(3,3-dimethylbutyl)-L-α-aspartyl]-L-phenylalanine methyl ester] | about 5 minutes | – | – |
| COC(=O)[C@H](Cc1ccccc1)NC(=O)[C@H](CC(=O)O)NCCC(C)(C)C [A-type crystals, N-[N-(3,3-dimethylbutyl)-L-α-aspartyl]-L-phenylalanine methyl ester, reference compound] | about 35 minutes | – | – |
| COC(=O)[C@H](Cc1ccccc1)NC(=O)[C@H](CC(=O)O)NCCC(C)(C)C [N-(3,3-dimethylbutyl)-APM, N-[N-(3,3-dimethylbutyl)-L-α-aspartyl]-L-phenylalanine methyl ester] | – | at least 50 times | about 10,000 times |
